Data reported in patent publication US11203591B2, “Substituted 6-azabenzimidazole compounds” (Gilead Sciences, Inc., priority 2018, dated 2021).

Molecular target: human HPK1 (MAP4K1) (Homo sapiens (Human), UniProt Q92918)
Assay: HPK1 IC50 Assay (TR-FRET peptide phosphorylation)
Assay type: biochemical
Outline: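 Readout: TR-FRET (665 nm/620 nm) after EDTA stop, detecting STK S1 peptide (1 μM) phosphorylation by 0.15 nM HPK1 kinase domain, ATP-pre-activated, at 10 μM ATP over 3 h, 25° C, pH 7.0. IC50s from four-parameter variable-slope fits, normalized to staurosporine and DMSO, averaged geometrically.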

[1] = recombinant HPK1 kinase domain 0.15 nM, 10 μM ATP, 1 μM STK S1 peptide, geometric mean of multiple experiments
[2] = 0.15 nM HPK1, 10 μM ATP, 1 μM STK S1 peptide substrate, geometric mean

human HPK1 (MAP4K1), sequence (Q92918 17-274): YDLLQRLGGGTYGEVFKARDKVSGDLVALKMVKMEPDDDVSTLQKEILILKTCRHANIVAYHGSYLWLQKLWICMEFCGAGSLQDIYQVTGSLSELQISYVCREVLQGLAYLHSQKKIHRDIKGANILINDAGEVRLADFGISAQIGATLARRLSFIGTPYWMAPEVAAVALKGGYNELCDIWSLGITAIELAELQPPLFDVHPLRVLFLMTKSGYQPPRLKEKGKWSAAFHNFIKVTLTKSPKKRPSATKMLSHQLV

CNC(=O)c1cc(Nc2nc(-c3ccc4c(c3)N([C@H]3C[C@@H](N5CCCC(C(F)F)C5)C3)C(=O)C4(C)C)cc3ncn(C(C)C)c23)ccc1C (stereo partly drawn) [Example 105, 5-((6-(1-((1s,3s)-3-(3-(difluoromethyl)piperidin-1-yl)cyclobutyl)-3,3-dimethyl-2-oxoindolin-6-yl)-3-isopropyl-3H-imidazo[4,5-c]pyridin-4-yl)amino)-N,2-dimethylbenzamide]
IC50 [1]: 0.2 nM

Cc1c(C(=O)NC2(C(F)F)CC2)cc(Nc2nc(-c3cnc4c(c3)N(C3CC(C)(N5CCC6C[C@H]5CO6)C3)C(=O)C4(C)C)cc3ncn(C(C)C)c23)c(F)c1F (stereo partly drawn) [Example 191, 5-((6-(1-((1s,3s)-3-(6-oxa-2-azabicyclo[3.2.1]octan-2-yl)-3-methylcyclobutyl)-3,3-dimethyl-2-oxo-2,3-dihydro-1H-pyrrolo[3,2-b]pyridin-6-yl)-3-isopropyl-3H-imidazo[4,5-c]pyridin-4-yl)amino)-N-(1-(difluoromethyl)cyclopropyl)-3,4-difluoro-2-methylbenzamide]
IC50 [1]: 0.09 nM

CC(C)n1cnc2cc(-c3ccc4c(c3)N([C@H]3C[C@@](C)(N5CCCCC5)C3)C(=O)C4(C)C)nc(Nc3cc(C(=O)NC4(C(F)F)CC4)c(Cl)cc3F)c21 [Example 294, 2-chloro-N-(1-(difluoromethyl)cyclopropyl)-5-((6-(3,3-dimethyl-1-((1s,3s)-3-methyl-3-(piperidin-1-yl)cyclobutyl)-2-oxoindolin-6-yl)-3-isopropyl-3H-imidazo[4,5-c]pyridin-4-yl)amino)-4-fluorobenzamide]
IC50 [2]: 0.08 nM

CC(=O)N1CCC2(CC1)C(=O)N([C@H]1C[C@@H](N3CCCCC3)C1)c1cc(-c3cc4ncn(C(C)C)c4c(Nc4cc(C(=O)NC(C)C)c(Cl)cc4F)n3)ccc12 [Example 89]
IC50 [1]: 0.2 nM

Cc1c(C(=O)NC(C)C)cc(Nc2nc(-c3cnc4c(c3)N([C@H]3C[C@@](C)(N5CCCCC5)C3)C(=O)C4(C)C)cc3ncn(C(C)C)c23)c(F)c1F [Example 220, 5-((6-(3,3-Dimethyl-1-((1s,3s)-3-methyl-3-(piperidin-1-yl)cyclobutyl)-2-oxo-2,3-dihydro-1H-pyrrolo[3,2-b]pyridin-6-yl)-3-isopropyl-3H-imidazo[4,5-c]pyridin-4-yl)amino)-3,4-difluoro-N-isopropyl-2-methylbenzamide]
IC50 [1]: 0.09 nM

CC(C)n1cnc2cc(-c3cnc4c(c3)N([C@H]3C[C@@](C)(N5CCOCC5)C3)C(=O)C4(C)C)nc(Nc3cc(C(=O)NC4(C(F)F)CC4)c(Cl)c(F)c3F)c21 [Example 199, 2-Chloro-N-(1-(difluoromethyl)cyclopropyl)-5-((6-(3,3-dimethyl-1-((1s,3s)-3-methyl-3-morpholinocyclobutyl)-2-oxo-2,3-dihydro-1H-pyrrolo[3,2-b]pyridin-6-yl)-3-isopropyl-3H-imidazo[4,5-c]pyridin-4-yl)amino)-3,4-difluorobenzamide]
IC50 [1]: 0.1 nM

CNC(=O)c1cc(Nc2nc(-c3ccc4c(c3)N([C@H]3C[C@@H](N5CCCC(C)(C)C5)C3)C(=O)C4(C)C)cc3ncn(C4CC4)c23)ccc1C [Example 38]
IC50 [1]: 0.07 nM

CCNC(=O)c1cc(Nc2nc(-c3ccc4c(c3)N([C@H]3C[C@@H](N5CCCCC5)C3)C(=O)C43CCOCC3)cc3ncn(C(C)C)c23)ccc1C [Example 22]
IC50 [1]: 0.07 nM

CNC(=O)c1cc(Nc2nc(-c3ccc4c(c3)N([C@H]3C[C@@H](N5CCCCC5)C3)C(=O)C43CCN(C(=O)C45CC(O)(C4)C5)CC3)cc3ncn(C(C)C)c23)ccc1C [Example 148]
IC50 [1]: 0.2 nM

CNC(=O)c1cc(Nc2nc(-c3ccc4c(c3)N([C@H]3C[C@@H](N5CCCCC5)C3)C(=O)C4(C)O)cc3ncn(C(C)C)c23)ccc1Cl (stereo partly drawn) [Example 63]
IC50 [1]: 0.1 nM

CNC(=O)c1cc(Nc2nc(-c3ccc4c(c3)N([C@H]3C[C@@H](N5CCCCC5)C3)C(=O)C43CCN(C(=O)C45CC(C4)C5)CC3)cc3ncn(C4CC4)c23)ccc1C [Example 156]
IC50 [1]: 0.06 nM

CC(C)n1cnc2cc(-c3cnc4c(c3)N([C@H]3C[C@@](C)(N5CCCCC5)C3)C(=O)C4(C)C)nc(Nc3cc(C(=O)NC4(C(F)F)CC4)c(Cl)cc3F)c21 [Example 202, 2-Chloro-N-(1-(difluoromethyl)cyclopropyl)-5-((6-(3,3-dimethyl-1-((1s,3s)-3-methyl-3-(piperidin-1-yl)cyclobutyl)-2-oxo-2,3-dihydro-1H-pyrrolo[3,2-b]pyridin-6-yl)-3-isopropyl-3H-imidazo[4,5-c]pyridin-4-yl)amino)-4-fluorobenzamide]
IC50 [1]: 0.1 nM

CNC(=O)c1cc(Nc2nc(-c3ccc4c(c3)N([C@H]3C[C@@H](N5CCCC5)C3)C(=O)C4(C)C)cc3ncn(C(C)C)c23)ccc1C [Example 103]
IC50 [1]: 0.1 nM

Cc1c(C(=O)NC2(C(F)F)CC2)cc(Nc2nc(-c3cnc4c(c3)N([C@H]3C[C@@](C)(N5CCC(F)C6(CC6)C5)C3)C(=O)C4(C)C)cc3ncn(C(C)C)c23)c(F)c1F (stereo partly drawn) [Example 187, N-(1-(Difluoromethyl)cyclopropyl)-3,4-difluoro-5-((6-(1-((1s,3s)-3-(8-fluoro-5-azaspiro[2.5]octan-5-yl)-3-methylcyclobutyl)-3,3-dimethyl-2-oxo-2,3-dihydro-1H-pyrrolo[3,2-b]pyridin-6-yl)-3-isopropyl-3H-imidazo[4,5-c]pyridin-4-yl)amino)-2-methylbenzamide]
IC50 [1]: 0.2 nM

CNC(=O)c1cc(Nc2nc(-c3ccc4c(c3)N([C@H]3C[C@@H](N5CCCCC5)C3)C(=O)C4(C)C)cc3ncn(C(C)C)c23)ccc1Cl [Example 119]
IC50 [1]: 0.07 nM

CCNC(=O)c1cc(Nc2nc(-c3cc4c(nc3F)C(C)(C)C(=O)N4[C@H]3C[C@@](C)(N4CCCC5(CC5)C4)C3)cc3ncn(C(C)C)c23)c(F)c(F)c1C [Example 279, N-ethyl-3,4-difluoro-5-((6-(5-fluoro-3,3-dimethyl-1-((1s,3s)-3-methyl-3-(5-azaspiro[2.5]octan-5-yl)cyclobutyl)-2-oxo-2,3-dihydro-1H-pyrrolo[3,2-b]pyridin-6-yl)-3-isopropyl-3H-imidazo[4,5-c]pyridin-4-yl)amino)-2-methylbenzamide]
IC50 [2]: 0.1 nM

CC[C@H](C)n1cnc2cc(-c3ccc4c(c3)N([C@H]3C[C@@H](N5CCCCC5)C3)C(=O)C4(C)C)nc(Nc3ccc(Cl)c(C(=O)NC)c3)c21 [Example 114]
IC50 [1]: 0.05 nM

CC(C)n1cnc2cc(-c3cnc4c(c3)N([C@H]3C[C@@](C)(N5CCCCC5)C3)C(=O)C4(C)C)nc(Nc3cc(C(=O)NC4CC4)c(Cl)c(F)c3F)c21 [Example 265, 2-chloro-N-cyclopropyl-5-((6-(3,3-dimethyl-1-((1s,3s)-3-methyl-3-(piperidin-1-yl)cyclobutyl)-2-oxo-2,3-dihydro-1H-pyrrolo[3,2-b]pyridin-6-yl)-3-isopropyl-3H-imidazo[4,5-c]pyridin-4-yl)amino)-3,4-difluorobenzamide]
IC50 [1]: 0.06 nM

CNC(=O)c1cc(Nc2nc(-c3ccc4c(c3)N([C@H]3C[C@@H](N5CC(C)(C)C5)C3)C(=O)C4(C)C)cc3ncn(C(C)C)c23)ccc1C [Example 122]
IC50 [1]: 0.1 nM

CNC(=O)c1cc(Nc2nc(-c3ccc4c(c3)N([C@H]3C[C@@H](N[C@@H]5CCOC[C@@H]5C)C3)C(=O)C4(C)C)cc3ncn(C(C)C)c23)ccc1C [Example 12]
IC50 [1]: 0.09 nM

CNC(=O)c1cc(Nc2nc(-c3ccc4c(c3)N([C@H]3C[C@@H](N5C[C@H]6CC[C@@H]5C6)C3)C(=O)C43CCN(C(=O)C4COC4)CC3)cc3ncn(C4CC4)c23)ccc1C [Example 42]
IC50 [1]: 0.06 nM

Cc1c(C(=O)NC2(C(F)F)CC2)cc(Nc2nc(-c3cnc4c(c3)N([C@H]3C[C@@](C)(N5CCOC(C)(C)C5)C3)C(=O)C4(C)C)cc3ncn(C(C)C)c23)c(F)c1F [Example 188, N-(1-(Difluoromethyl)cyclopropyl)-5-((6-(1-((1s,3s)-3-(2,2-dimethylmorpholino)-3-methylcyclobutyl)-3,3-dimethyl-2-oxo-2,3-dihydro-1H-pyrrolo[3,2-b]pyridin-6-yl)-3-isopropyl-3H-imidazo[4,5-c]pyridin-4-yl)amino)-3,4-difluoro-2-methylbenzamide]
IC50 [1]: 0.4 nM

CNC(=O)c1cc(Nc2nc(-c3cnc4c(c3)N([C@H]3C[C@@](C)(N5CCCCC5)C3)C(=O)C4(C)C)cc3ncn(C(C)C)c23)c(F)c(F)c1Cl [Example 281, 2-chloro-5-((6-(3,3-dimethyl-1-((1s,3s)-3-methyl-3-(piperidin-1-yl)cyclobutyl)-2-oxo-2,3-dihydro-1H-pyrrolo[3,2-b]pyridin-6-yl)-3-isopropyl-3H-imidazo[4,5-c]pyridin-4-yl)amino)-3,4-difluoro-N-methylbenzamide]
IC50 [2]: 0.07 nM

CNC(=O)c1cc(Nc2nc(-c3ccc4c(c3)N([C@H]3C[C@@H](N5CCCCC5)C3)C(=O)C43CCOCC3)cc3ncn(C(C)C)c23)ccc1C [Example 123]
IC50 [1]: 0.1 nM

Cc1c(C(=O)NC2(C(F)F)CC2)cc(Nc2nc(-c3ccc4c(c3)N([C@H]3C[C@@H](N5CCCCC5)C3)C(=O)C4(C)C)cc3ncn(C(C)C)c23)c(F)c1F [Example 144]
IC50 [1]: 0.07 nM

Cc1ccc(Nc2nc(-c3ccc4c(c3)N([C@H]3C[C@@H](N5CC(C)(C)C5)C3)C(=O)C4(C)C)cc3ncn(C(C)C)c23)cc1C(=O)NC1CC1 [Example 121]
IC50 [1]: 0.1 nM

Cc1cc(F)c(Nc2nc(-c3cnc4c(c3)N([C@H]3C[C@@](C)(N5C6CCC5COC6)C3)C(=O)C4(C)C)cc3ncn(C(C)C)c23)cc1C(=O)NC1(C(F)F)CC1 [Example 212, 5-((6-(1-((1s,3s)-3-(3-Oxa-8-azabicyclo[3.2.1]octan-8-yl)-3-methylcyclobutyl)-3,3-dimethyl-2-oxo-2,3-dihydro-1H-pyrrolo[3,2-b]pyridin-6-yl)-3-isopropyl-3H-imidazo[4,5-c]pyridin-4-yl)amino)-N-(1-(difluoromethyl)cyclopropyl)-4-fluoro-2-methylbenzamide]
IC50 [1]: 0.3 nM
